Assay results from patent US20240069001A1, “ADAPTIVE PERFUSION SYSTEMS AND METHODS FOR DRUG RELEASE TESTING” (The United States of America, as represented by the …, priority 2020, published 2024).

Columns and labels:
Type in all cases: physicochemical
[1] = Reverse-dialysis release/diffusion of pure difluprednate solution (USP 2 apparatus, 100 kD MWCO dialysis tubes); settings: pH 7.4 phosphate buffer:ethanol 80:20, 34° C.
Experimental: Release of difluprednate from pure drug solution was studied using a reverse-dialysis setup, where drug was transferred from outside a dialysis device to the inside. As compared to a dialysis configuration, the reverse-dialysis configuration provides an advantage in terms of allowing for better control of dilution and maximum drug concentration gradient across oil/water interface to drive the drug release. Diffusion of difluprednate through dialysis membrane was determined in a USP 2 apparatus setup (Vision Elite 8, Teledyne Hanson Research, with mini-vessels 800) using commercially available dialysis tubes 808 (Float-A-Lyzer G2, 100 kD MWCO, regenerated cellulose, Spectrum Labs, CA, USA), as shown in FIG. 8A. Each dialysis tube 808 was cleaned with 1.0% w/v polysorbate-80 solution in deionized water and subsequently washed thoroughly with deionized water. Dialysis tubes 808, containing about 1 mL of the release media (i.e., 10 mM pH 7.4 phosphate buffer mixed with ethanol in the ratio of 80:20 v/v), were suspended inside the USP 2 mini-vessels 800. Agitation was controlled at 100 rpm and the temperature was maintained at 34° C. Using conduit 806, 1 mL of difluprednate solution (1 mg/mL in ethanol) was spiked directly into the vessel 800, which contained 200 mL release media 802, in order to achieve an initial drug concentration of 5 μg/mL.
(§1) Within dialysis tube 808, difluprednate concentration (e.g., drug that had diffused through the membrane filter of dialysis device 808) was monitored in real time using an in-situ fiber optic probe 804, in particular a fiber optic UV-Vis system (Pion μDiss Profiler™, Billerica, MA). The scanning frequency was once every minute for the first 6 hours, then it switched to once every 5 minutes for the next 18 hours. After first 24 hours, the scanning frequency was changed to once every 10 minutes for the next 40 hours. For the last 104 hours, the scanning frequency was once every 30 min. The total experimental time was 168 hours (7 days). Pure difluprednate solution diluted with release medium at the same concentration of 5 μg/mL was also monitored in parallel as a control to determine any possible change in drug concentration, e.g., due to degradation. Prior to the start of the experiment, UV signals were calibrated using various concentrations of difluprednate standard solutions (0.05, 0.10, 0.50, 1.00, 2.00, 3.00, 4.00, and 6.00 μg/mL). Zero Intercept Method (ZIM) analysis was performed to remove polysorbate-80 interference by using wavelength within the range of 271-274 nm (exact ZIM wavelength varied between probes). Ethanol was used as a co-solvent to prevent the precipitation of difluprednate in the release media.

[2] = Control: pure difluprednate solution diluted with release medium, monitored for degradation; settings: control sample, at 24 hrs; 5 μg/mL in release medium; n=1
Experimental: as §1

[3] = Adaptive perfusion (AP) IVRT with 100 kD MWCO mPES hollow fiber filter; settings: AP method
Text: The setup 1000 includes a fresh media reservoir 1002, a particulate filtering device 1004 attached to the fresh media tubing (to prevent particulate contamination), two peristaltic pumps (a first pump 1014 for the sample feed and a second pump 1006 for the fresh media), two additional reservoirs (a first reservoir 1008 for the retentate (also called the feed reservoir) and a second reservoir 1038 for the permeate (also called the permeate reservoir)), a pre-conditioned TFF filter (in particular, an HFF 1020, with first port 1022 and second port 1024 connected to a retentate volume and third port 1032 and fourth port 1040 connected to a permeate volume), a backpressure controlling valve 1028, a magnetic stirrer 1010, a stir plate 1012 for mixing the sample with the media, a pressure monitoring system with three pressure sensors (inlet sensor 1018, retentate sensor 1026, and permeate sensor 1034), a mass flow monitoring system (e.g., flow-meter 1036), a data acquisition system (e.g., computer with software), and a fluid circuit 1030 (e.g., tubing) for interconnecting the various components. HFF 1020 was a Spectrum MicroKros®, 100 kD MWCO, modified polyether sulfone (mPES) membrane, 20 cm^2 surface area (Repligen Corporation, CA, USA). An initial drug product sample of a particular concentration and/or volume was manually spiked into the first reservoir 1008 using conduit 1016.
Pure difluprednate solution and difluprednate polysorbate-80 micelles was evaluated using the setup 1000 of FIG. 10. For pure difluprednate solution, 200 μL of difluprednate solution (1 mg/mL in ethanol) was spiked (via conduit 1016) into 40 mL of release media (10 mM pH 7.4 phosphate buffer mixed with ethanol in the ratio of 80:20 v/v) in reservoir 1008 to reach an initial difluprednate concentration of 5 μg/mL. Ethanol was used as a co-solvent to prevent the precipitation of difluprednate in the media. Difluprednate concentrations in the retentate reservoir 1008 and permeate reservoir 1038 were determined in real time using an in-situ fiber optic UV-Vis system (Pion μDiss Profiler™, Billerica, MA). ZIM analysis was performed to remove polysorbate-80 interference by using wavelength within the range of 271-274 nm (exact ZIM wavelength varied between probes). For difluprednate polysorbate-80 micelles, 1 mL of difluprednate polysorbate-80 micelle solution (100 μg/mL in 3.6% w/v polysorbate-80) was spiked (via conduit 1016) into 40 mL of the release media (10 mM pH 7.4 phosphate buffer) in reservoir 1008 to obtain an initial difluprednate concentration of 2.5 μg/mL. Aliquots of retentate and permeate were collected periodically from the retentate reservoir 1008 and from the permeate tubing (between third port 1032 and permeate reservoir 1038), respectively, and subjected to UPLC analysis to determine difluprednate concentration. Appropriate dilution was performed for the retentate aliquots by using acetonitrile prior to UPLC analysis. The study was conducted at ambient room temperature (i.e., 23.5±1.5° C.).
Several TFF hollow fiber filter modules having different MWCO of 30 kD, 100 kD, 300 kD and 500 kD (Spectrum MicroKros®, modified polyether sulfone (mPES) membrane, 20 cm^2 surface area, Repligen Corporation, CA, USA) were screened initially to select an optimal MWCO for the TFF filter for performing the in vitro release studies. 100 kD MWCO was eventually selected considering the range of globule sizes to be evaluated for the nanoemulsions. 200 μL of nanoemulsion was spiked (via conduit 1016) directly into 40 mL of media (10 mM pH 7.4 phosphate buffer) in reservoir 1008 to provide an initial concentration of 2.5 μg/mL for difluprednate. Aliquots of retentate and permeate were collected periodically from the retentate reservoir 1008 and from the permeate tubing (between outlet 1031 and 1038), respectively, and subjected to UPLC analysis to determine difluprednate concentration. […]

SMILES: CCCC(=O)O[C@]1(C(=O)COC(C)=O)CC[C@H]2[C@@H]3C[C@H](F)C4=CC(=O)C=C[C@]4(C)[C@@]3(F)[C@@H](O)C[C@@]21C [Pure drug (DFP) solution, Difluprednate]
- drug diffused at plateau ([1]; 100 kD MWCO): about 75%
- time for difluprednate concentration to reach plateau ([1]; 100 kD MWCO): ~8 h
- time for 50% of difluprednate to diffuse across the dialysis membrane ([1]; 100 kD MWCO, 100 rpm, 5 μg/mL): more than 3 hours
- time after which decrease in difluprednate concentration was observed (degradation in alkaline media) ([1]; inside dialysis tube): about 10 hours
- pure drug remaining in the bulk media [2]: 85%
- time to reach 90% of drug release ([3]; permeate (FIG. 12A)): less than 15 minutes
- Permeate Maximum Drug Release ([3]; Mean ± SD, n = 3): 93.7 ± 5.5%
- Permeate t50 ([3]; Mean ± SD, n = 3): 5.3 ± 0.6 min
- Permeate k* (first-order rate constant) ([3]; Q = 100*(1 − e^−k*t), Mean ± SD, n = 3, room temperature): 0.146 ± 0.018 min⁻¹
- Retentate k* (first-order rate constant) ([3]; Q = 100*e^−k*t, Mean ± SD, n = 3, room temperature): 0.211 ± 0.056 min⁻¹
- difluprednate transferred across the membrane (into the permeate) ([3]; in less than 15 minutes): more than 90%
